Experiment [1] concerns the target T1, SHP2cat (Homo sapiens, UniProt Q06124).
T1 construct: the SHP2 catalytic domain (SHP2cat; residues 248–527); made in house
T1 sequence (Q06124 248-527): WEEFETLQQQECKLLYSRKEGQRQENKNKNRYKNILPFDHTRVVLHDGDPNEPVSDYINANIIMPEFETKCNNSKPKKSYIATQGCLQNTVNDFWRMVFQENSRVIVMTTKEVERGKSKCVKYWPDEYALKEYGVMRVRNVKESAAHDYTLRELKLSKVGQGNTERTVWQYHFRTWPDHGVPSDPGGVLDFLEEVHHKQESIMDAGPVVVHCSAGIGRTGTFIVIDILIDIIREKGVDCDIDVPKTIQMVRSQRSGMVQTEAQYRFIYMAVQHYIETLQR
Kind of experiment: Protein thermal shift (PTS) assay. The experiment is classed as binding. The following applies: dose response. An excerpt: We confirmed specific and dose-dependent binding of inhibitors to SHP2 by PTS, which monitors the thermal stability of a target protein in vitro ([40]). […] In addition, we confirmed the inhibitory activity of several furanylbenzamide inhibitors, including the top two compounds SBI-2130 and SBI-4668, in SHP2cat inhibition assays using the alternative substrate 3-O-methylfluorescein phosphate (OMFP), which features a peak fluorescence emission that is red-shifted by ∼75 nm compared with DiFMUP. The Km value of OMFP for SHP2cat was determined to be 50 μM. An OMFP fluorescence intensity–based assay was used to perform inhibitor dose–response experiments and determine IC50 values.
Differential scanning fluorimetry (also known as protein thermal shift) measurements of SHP2cat were performed using optimized methods and conditions in accordance with those previously described ([36], [41], [49]). SBI-4668 was spotted at different concentrations into MicroAmp 384-well real-time PCR plates (catalog no.: 4483285; Applied Biosystems) using an Echo 555 Liquid Handler. […] Plates were analyzed using a ViiA 7 Real-Time PCR instrument (Applied Biosystems) and a 12 min temperature gradient with a temperature increase of 0.075 °C/s. The melting temperature and thermal profiles were determined as described previously using Protein Thermal Shift Software, version 1.3 (Applied Biosystems) ([36], [49]).

Experiment [2] deals with MV4-11 AML cells. Description: Cell viability (CellTiter-Glo), MV4-11. The experiment is classed as cell-based. The following applies: Homo sapiens, MV4-11, 72 h; 3 days in culture. As to the method:
Inhibition of SHP2 has been reported to inhibit the growth of cancer cells including Kasumi-1 acute myeloid leukemia (AML) and KYSE-520 esophageal cancer cells ([30]). […] Thus, we treated two TNBC cell lines, BT-549 and MDA-MB-468, with SBI-4668 or the SHP2 allosteric inhibitor SHP099 at various concentrations and determined cell viability after 72 h, compared with the vehicle control (Fig. 4C). […] Next, we performed an 11-day colony formation assay with TNBC cells treated with SBI-4668 or SHP099 at 5, 10, or 20 μM (Fig. 4D).
Viability of AML and esophageal carcinoma cells was assessed using the ATP-depletion assay CellTiter-Glo (Promega). Cells were harvested at 1 × 10^6/ml to 2 × 10^6 cells/ml with cell numbers determined by trypan blue using the Countess Cell counter (Thermo Scientific) and resuspended in culture media. About 3000 cells (in 20 μl) were seeded in a 384-well format white and clear-bottom microplate (catalog no.: 781098; Greiner) spotted with test compound or vehicle control (DMSO) using an Echo 555 Liquid Handler. Cells were incubated for 3 days, before 10 μl of CellTiter-Glo reagent mix was added to each well and incubated for 10 min at RT. Luminescence was read on a Tecan Spark Multimode Microplate Reader, and data were analyzed using GraphPad Prism software.

One may read the IC50 as the concentration that gives 50% inhibition.

Turning to `O=C(Nc1ccccc1)c1cc(-c2ccc(/C=C3\Sc4ccccc4C3=O)o2)ccc1O` [SBI-4668, (Z)-2-Hydroxy-5-(5-((3-oxobenzo[b]thiophen-2(3H)-ylidene)methyl)furan-2-yl)-N-phenylbenzamide], the “change of SHP2cat melting temperature (Tm) vs DMSO” value in experiment [1] was “dose-dependently increased the melting temperature”. In addition, half-maximal inhibition in experiment [2] (IC50) was put at 8.2 µM.

The values above are taken from paper PMC8760490, “Discovery of novel furanylbenzamide inhibitors that target oncogenic tyrosine phosphatase SHP2 in leukemia cells” (The Journal of Biological Chemistry, 2021).
